Earlier results as cited in publication PMC10146281, “Pharmacokinetic and Pharmacodynamic Characteristics of Pelubiprofen Tromethamine vs. Pelubiprofen in Healthy Subjects” (Pharmaceutics, 2023).
Read-outs that look alike come from different tables or passages of the source.

Conditions: cited from earlier work

SMILES: CC(C)Cc1ccc(C(C)C(=O)O)cc1 (centres unmarked) [ibuprofen]
- Cmax: approximately 24 mg/L

SMILES: CC(C)Cc1ccc(C(C)C(=O)O)cc1.N=C(N)NCCC[C@H](N)C(=O)O (centres unmarked) [ibuprofen arginate]
- Cmax (in vivo): approximately 30 mg/L
